Reference: patent US12637471B2, “Heterocyclic compounds, compositions, methods of preparation and uses thereof” (Organon R&D Finland Ltd, priority 2021, dated 2026)

How the values were obtained:
Assay type in all cases: biochemical
[1] = target: T1, 17β-Hydroxysteroid Dehydrogenase Type 2 Enzyme (17β-HSD2) (Homo sapiens, UniProt P37059); assay: Inhibition of the 17β-hydroxysteroid dehydrogenase type 2 enzyme, 3H-testosterone conversion; conditions: inhibitor at 10 μM
T1 construct: made in house; host or cells: Sf-9 insect cells (baculovirus)
T1 sequence (P37059 1-387): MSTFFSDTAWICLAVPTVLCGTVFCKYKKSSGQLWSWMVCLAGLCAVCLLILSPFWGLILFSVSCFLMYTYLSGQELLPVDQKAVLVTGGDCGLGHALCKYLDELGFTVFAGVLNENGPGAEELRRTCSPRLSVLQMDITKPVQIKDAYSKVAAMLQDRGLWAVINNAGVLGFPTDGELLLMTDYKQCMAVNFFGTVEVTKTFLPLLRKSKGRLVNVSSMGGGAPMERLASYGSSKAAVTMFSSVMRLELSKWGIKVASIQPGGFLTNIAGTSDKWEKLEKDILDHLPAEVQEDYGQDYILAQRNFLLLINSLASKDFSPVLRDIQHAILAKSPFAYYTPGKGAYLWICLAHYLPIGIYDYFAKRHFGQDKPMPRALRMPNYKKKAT
Outline: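 Single-point screen at 10 μM inhibitor, 1% DMSO: Sf-9-expressed human enzyme (105 nM), NAD 1 mM, ³H-labelled testosterone 56.25 nM, pH 8.5 phosphate/EDTA buffer, 30 min, room temperature. After TCA quench, substrate and product radioactivity quantified by UPLC with scintillation detection; inhibition percent from conversion.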

[2] = target: T2, Recombinant human aldo-keto reductase family 1 member C2 (AKR1C2) protein (Homo sapiens, UniProt P52895); assay: Inhibition of the aldo-keto reductase family 1 member C2, 3H-dihydrotestosterone conversion; conditions: inhibitor at 10 μM
T2 construct: made in house; host or cells: Sf-9 insect cells (baculovirus)
T2 sequence (P52895 1-323): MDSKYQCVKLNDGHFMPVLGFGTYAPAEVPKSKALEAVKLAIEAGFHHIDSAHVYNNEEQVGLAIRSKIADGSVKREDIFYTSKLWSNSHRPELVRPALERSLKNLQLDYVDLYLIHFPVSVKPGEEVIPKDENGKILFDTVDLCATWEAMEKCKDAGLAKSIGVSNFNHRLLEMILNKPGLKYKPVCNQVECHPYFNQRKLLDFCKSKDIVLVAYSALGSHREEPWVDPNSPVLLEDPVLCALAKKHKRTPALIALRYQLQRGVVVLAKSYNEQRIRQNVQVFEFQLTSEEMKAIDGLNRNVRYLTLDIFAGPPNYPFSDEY
Outline: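 Single-point screen at 10 μM inhibitor, 1% DMSO: [3H]DHT (6.25 nM) reduction to 3α-diol by baculovirus-made AKR1C2 (13.6 nM), pH 7.4 phosphate buffer, 1 mM NADPH, 37 °C for 45 min. Radio-UPLC quantified product versus substrate to give percent inhibition.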

[3] = target: T3, Recombinant human AKR1C3 (17β-HSD5) protein (Homo sapiens, UniProt P42330); assay: Inhibition of AKR1C3 (17β-hydroxysteroid dehydrogenase type 5) enzyme, fluorescence assay; conditions: inhibitor at 500 nM
T3 construct: made in house; host or cells: E. coli
T3 sequence (P42330 1-323): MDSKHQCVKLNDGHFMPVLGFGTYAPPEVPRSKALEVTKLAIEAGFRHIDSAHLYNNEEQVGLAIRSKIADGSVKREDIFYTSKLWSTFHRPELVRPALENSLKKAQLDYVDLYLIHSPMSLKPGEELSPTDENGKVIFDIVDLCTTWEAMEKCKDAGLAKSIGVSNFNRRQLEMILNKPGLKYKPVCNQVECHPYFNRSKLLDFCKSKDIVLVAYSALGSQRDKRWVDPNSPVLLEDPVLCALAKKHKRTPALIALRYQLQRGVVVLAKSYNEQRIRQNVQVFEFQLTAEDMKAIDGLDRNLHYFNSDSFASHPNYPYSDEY
Outline: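 Percent inhibition at 500 nM compound, derived from substrate conversion; product alcohol measured by fluorescence (ex 420, em 510 nm) against a 1 μM–10 nM standard curve. Reaction: 27 nM recombinant AKR1C3, 1 μM ketone substrate, 1 mM NADPH, phosphate/EDTA buffer pH 7.4, 1% DMSO, RT for 60–120 min.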

Row | SMILES | inhibition at 10 µM [1] | inhibition at 10 µM [2] | inhibition at 0.5 µM [3]
1 | N#CC(=C1CCN(C(=O)N2CCn3cncc3C2)CC1)c1ccc(Cl)s1 [Compound 121, 2-(5-chlorothiophen-2-yl)-2-(1-(5,6,7,8-tetrahydroimidazo[1,5-a]pyrazine-7-carbonyl)piperidin-4-ylidene)acetonitrile] | -7% | 32% | 99%
2 | N#CC(=C1CCN(C(=O)N2CCC(O)CC2)CC1)c1ccc(F)cc1 [Compound 4, 2-(4-fluorophenyl)-2-(1-(4-hydroxypiperidine-1-carbonyl)piperidin-4-ylidene)acetonitrile] | 8% | 0% | 99%
3 | N#CC(=C1CCN(C(=O)N2CCC(CCO)CC2)CC1)c1cccc(Cl)c1 [Compound 140, 2-(3-chlorophenyl)-2-(1-(4-(2-hydroxyethyl)piperidine-1-carbonyl)piperidin-4-ylidene)acetonitrile] | 23% | 21% | 96%
4 | N#CC(=C1CCN(C(=O)N2CCC(CO)CC2)CC1)c1ccc(C(F)(F)F)cc1 [Compound 76, 2-(1-(4-(hydroxymethyl)piperidine-1-carbonyl)piperidin-4-ylidene)-2-(4-(trifluoromethyl)phenyl)acetonitrile] | 20% | 6% | 99%
5 | COC[C@@H]1CCCN1C(=O)N1CCC(=C(C#N)c2ccc(Cl)cc2)CC1 [Compound 82, (S)-2-(4-chlorophenyl)-2-(1-(2-(methoxymethyl)pyrrolidine-1-carbonyl)piperidin-4-ylidene)acetonitrile] | 28% | 3% | 100%
6 | N#CC(=C1CCN(C(=O)N2CCc3nocc3C2)CC1)c1ccc(C(F)(F)F)cc1 [Compound 87, 2-(1-(4,5,6,7-tetrahydroisoxazolo[4,3-c]pyridine-5-carbonyl)piperidin-4-ylidene)-2-(4-(trifluoromethyl)phenyl)acetonitrile] | 23% | 31% | 99%
7 | N#CC(=C1CCN(C(=O)N2CCC(S(N)(=O)=O)CC2)CC1)c1ccc(Cl)s1 [Compound 77, 1-(4-((5-chlorothiophen-2-yl)(cyano)methylene)piperidine-1-carbonyl)piperidine-4-sulfonamide] | 19% | 24% | 96%
8 | N#CC(=C1CCN(C(=O)N2CCc3[nH]ncc3C2)CC1)c1cccc2[nH]ncc12 [Compound 60, 2-(1H-indazol-4-yl)-2-(1-(4,5,6,7-tetrahydro-1H-pyrazolo[4,3-c]pyridine-5-carbonyl)piperidin-4-ylidene)acetonitrile] | 29% | 9% | 98%
9 | CC(O)C1CCN(C(=O)N2CCC(=C(C#N)c3cccc(Cl)c3)CC2)CC1 (stereo not drawn) [Compound 154, 2-(3-chlorophenyl)-2-(1-(4-(1-hydroxyethyl)piperidine-1-carbonyl)piperidin-4-ylidene)acetonitrile] | 26% | 14% | 98%
10 | N#CC(=C1CCN(C(=O)N2CCn3nncc3C2)CC1)c1ccc(Cl)cn1 [Compound 163, 2-(5-chloropyridin-2-yl)-2-(1-(4,5,6,7-tetrahydro-[1,2,3]triazolo[1,5-a]pyrazine-5-carbonyl)piperidin-4-ylidene)acetonitrile] | 9% | 2% | 97%
11 | CO[C@@H]1CCN(C(=O)N2CCC(=C(C#N)c3ccc(F)cc3)CC2)C1 [Compound 7, (R)-2-(4-fluorophenyl)-2-(1-(3-methoxypyrrolidine-1-carbonyl)piperidin-4-ylidene)acetonitrile] | 1% | 9% | 95%
12 | CCN(CC)C(=O)N1CCC(=C(C#N)c2ccc(Cl)s2)CC1 [Compound 173, 4-((5-chlorothiophen-2-yl)(cyano)methylene)-N,N-diethylpiperidine-1-carboxamide] | 50% | 29% | 99%
13 | N#CC(=C1CCN(C(=O)N2CCn3nncc3C2)CC1)c1cccc(Cl)c1 [Compound 155, 2-(3-chlorophenyl)-2-(1-(4,5,6,7-tetrahydro-[1,2,3]triazolo[1,5-a]pyrazine-5-carbonyl)piperidin-4-ylidene)acetonitrile] | 19% | 21% | 99%
14 | N#CC(=C1CCN(C(=O)N2CCc3[nH]ncc3C2)CC1)c1cccc2cn[nH]c12 [Compound 71, 2-(1H-indazol-7-yl)-2-(1-(4,5,6,7-tetrahydro-1H-pyrazolo[4,3-c]pyridine-5-carbonyl)piperidin-4-ylidene)acetonitrile] | 29% | 12% | 99%
15 | N#CC(=C1CCN(C(=O)N2CCn3ncnc3C2)CC1)c1ccc(Cl)s1 [Compound 168, 2-(5-chlorothiophen-2-yl)-2-(1-(5,6,7,8-tetrahydro-[1,2,4]triazolo[1,5-a]pyrazine-7-carbonyl)piperidin-4-ylidene)acetonitrile] | -2% | 24% | 98%
16 | C[C@@H]1CCCCN1C(=O)N1CCC(=C(C#N)c2ccc(F)cc2)CC1 [Compound 110, (R)-2-(4-fluorophenyl)-2-(1-(2-methylpiperidine-1-carbonyl)piperidin-4-ylidene)acetonitrile] | 30% | 6% | 96%
17 | CCOC1CCN(C(=O)N2CCC(=C(C#N)c3ccc(F)cc3F)CC2)CC1 [Compound 137, 2-(2,4-difluorophenyl)-2-(1-(4-ethoxypiperidine-1-carbonyl)piperidin-4-ylidene)acetonitrile] | 6% | 18% | 97%
18 | N#CC(=C1CCN(C(=O)N2CCn3cccc3C2)CC1)c1ccc(F)cc1 [Compound 28, 2-(4-fluorophenyl)-2-(1-(1,2,3,4-tetrahydropyrrolo[1,2-a]pyrazine-2-carbonyl)piperidin-4-ylidene)acetonitrile] | 27% | 8% | 97%
19 | N#CC(=C1CCN(C(=O)N2CCn3cncc3C2)CC1)c1cccc2[nH]ncc12 [Compound 61, 2-(1H-indazol-4-yl)-2-(1-(5,6,7,8-tetrahydroimidazo[1,5-a]pyrazine-7-carbonyl)piperidin-4-ylidene)acetonitrile] | 30% | 7% | 99%
20 | CC(=O)n1ncc2c(C(C#N)=C3CCN(C(=O)N4CCc5nocc5C4)CC3)cccc21 [Compound 93, 2-(1-acetyl-1H-indazol-4-yl)-2-(1-(4,5,6,7-tetrahydroisoxazolo[4,3-c]pyridine-5-carbonyl)piperidin-4-ylidene)acetonitrile] | 23% | 11% | 98%
21 | N#CC(=C1CCN(C(=O)N2CCCCC2)CC1)c1ccc(Cl)cc1 [Compound 104, 2-(4-chlorophenyl)-2-(1-(piperidine-1-carbonyl)piperidin-4-ylidene)acetonitrile] | 0% | 5% | 96%
